Data reported in patent US8748461B2, “Metalloenzyme inhibitor compounds” (Viamet Pharmaceuticals, Inc., priority 2011, dated 2014).
Values after ≈ are worked out from the molar mass of the structure shown.

How the values were obtained:
[1] = test system: C. albicans; assay: Minimum Inhibitory Concentration (MIC) (C. albicans), CLSI M27-A2; type: cell-based; conditions: Candida albicans; about 50% growth reduction; approximately 48 h at 35±1° C.
Protocol: A. Minimum Inhibitory Concentration (MIC) (C. albicans) Compounds of the present disclosure were assessed for their ability to inhibit the growth of common strains of fungus, C. albicans using a standardized procedure (CLSI M27-A2). Stock solutions of the test compounds and standards were prepared in DMSO at 1,600 μg/mL (C. albicans). Eleven, serial, one-half dilutions of compounds were prepared in 96-well plates in RPMI+MOPS. The assay concentration ranges were 8-0.001 μg/mL (C. albicans). Cell suspensions of C. albicans were prepared and added to each well at concentrations of approximately 3.7×10^3 colony-forming-units per milliliter (cfu/mL). All testing was in duplicate. The inoculated plates were incubated for approximately 48 h at 35±1° C. At the completion of incubation the wells of each plate were evaluated visually for the presence of fungal growth. […] For QC purposes C. krusei isolate ATCC 6258 (4.0×10^3 cfu/mL) was included in the VOR assay.

[2] = target: T1, CYP2C9 (Homo sapiens, UniProt P11712); assay: Inhibition of liver cytochrome P450 enzymes, isozyme 2C9; type: in vitro ADME; conditions: pooled human liver microsomes
T1 construct: from tissue; host or cells: pooled human liver microsomes
Protocol: (§1) B. […] Solutions of each test compound were separately prepared at concentrations of 20000, 6000, 2000, 600, 200, and 60 μM by serial dilution with DMSO:acetonitrile (MeCN) (50:50 v/v). The individual test compound solutions were then diluted 20-fold with DMSO:MeCN:deionized water (5:5:180 v/v/v) to concentrations of 1000, 300, 100, 30, 10, and 3 μM. […] The mixed inhibitor solutions were then diluted 20-fold with DMSO:MeCN:deionized water (5:5:180 v/v/v) to concentrations of 300, 100, 30, 10, 3, 1, 0.3, and 0.1 μM. The percent of organic solvent attributable to the test compound or inhibitor mixture in the final reaction mixture was 2% v/v. Pooled human liver microsome suspension (20 mg/mL) was diluted with phosphate buffer to obtain a 5 mg/mL suspension. A solution of NADPH was prepared in phosphate buffer at a concentration of 5 mM. Separate stock solutions of each substrate were prepared in DMSO:MeCN (50:50 v/v), mixed, and diluted in phosphate buffer to obtain a single solution containing each substrate at five times its experimentally determined Km concentration. […] A portion of the supernatant was analyzed by gradient reverse-phase HPLC with detection by electrospray ionization triple quadrupole mass spectrometry in the positive ion mode. Data was fitted to sigmoid dose-response curves and the inhibitory potency of each test compound was determined as its IC50 value.

[3] = target: T2, CYP2C19 (Homo sapiens, UniProt P33261); assay: Inhibition of liver cytochrome P450 enzymes, isozyme 2C19; type: in vitro ADME; conditions: pooled human liver microsomes
T2 construct: from tissue; host or cells: pooled human liver microsomes
Protocol: as §1

[4] = target: T3, CYP3A4 (Homo sapiens, UniProt P08684); assay: Inhibition of liver cytochrome P450 enzymes, isozyme 3A4; type: in vitro ADME; conditions: pooled human liver microsomes
T3 construct: from tissue; host or cells: pooled human liver microsomes
Protocol: as §1

[5] = test system: Septoria tritici (ATCC 26517); assay: Minimum Inhibitory Concentration (MIC) vs. Septoria tritici; type: cell-based; conditions: Zymoseptoria tritici, ATCC26517, 168 h; 50% reduction in growth of S. tritici; 22° C., seven days; read-out: Septoria Rating (MIC)
Procedure, shortened: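 Growth inhibition of S. tritici by CLSI-based filamentous-fungus microdilution, 2-fold series 16 to 0.016 μg/mL in RPMI-1640/MOPS with 2% DMSO. Inoculum approximately 5×10^4 cfu/mL; plates incubated 22° C, seven days, dark, unshaken.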

[6] = test system: Puccinia recondita tritici = Puccinia triticina; assay: Fungicidal activity vs. leaf rust on wheat plants; type: in vivo; conditions: 50 ppm spray on wheat (Yuma), inoculated the following day, evaluated 7-9 days later; read-out: Puccinia Rating (% Disease Control @ 50 ppm)
Procedure, shortened: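 Wheat seedlings were sprayed to wetness with compound at 50 ppm in 10% acetone/Triton X100 water, at about 1500 L/ha. They were inoculated with P. recondita tritici spores the following day and held overnight at high humidity before greenhouse growth. Disease severity was rated 7-9 days later on a rating scale.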

T3 sequence (P08684 whole entry): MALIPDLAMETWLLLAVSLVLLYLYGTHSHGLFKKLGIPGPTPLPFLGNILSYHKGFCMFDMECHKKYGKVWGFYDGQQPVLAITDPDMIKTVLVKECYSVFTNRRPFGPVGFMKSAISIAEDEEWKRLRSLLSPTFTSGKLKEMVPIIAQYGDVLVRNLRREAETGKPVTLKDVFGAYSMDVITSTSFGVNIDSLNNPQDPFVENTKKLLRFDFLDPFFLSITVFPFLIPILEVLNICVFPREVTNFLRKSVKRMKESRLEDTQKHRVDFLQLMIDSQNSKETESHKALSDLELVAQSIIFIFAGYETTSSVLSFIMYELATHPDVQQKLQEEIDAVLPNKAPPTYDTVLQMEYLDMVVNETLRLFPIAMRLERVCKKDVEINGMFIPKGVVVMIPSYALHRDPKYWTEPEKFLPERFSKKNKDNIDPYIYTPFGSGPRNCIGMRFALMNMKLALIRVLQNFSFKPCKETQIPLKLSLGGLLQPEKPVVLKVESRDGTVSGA
T1 sequence (P11712 whole entry): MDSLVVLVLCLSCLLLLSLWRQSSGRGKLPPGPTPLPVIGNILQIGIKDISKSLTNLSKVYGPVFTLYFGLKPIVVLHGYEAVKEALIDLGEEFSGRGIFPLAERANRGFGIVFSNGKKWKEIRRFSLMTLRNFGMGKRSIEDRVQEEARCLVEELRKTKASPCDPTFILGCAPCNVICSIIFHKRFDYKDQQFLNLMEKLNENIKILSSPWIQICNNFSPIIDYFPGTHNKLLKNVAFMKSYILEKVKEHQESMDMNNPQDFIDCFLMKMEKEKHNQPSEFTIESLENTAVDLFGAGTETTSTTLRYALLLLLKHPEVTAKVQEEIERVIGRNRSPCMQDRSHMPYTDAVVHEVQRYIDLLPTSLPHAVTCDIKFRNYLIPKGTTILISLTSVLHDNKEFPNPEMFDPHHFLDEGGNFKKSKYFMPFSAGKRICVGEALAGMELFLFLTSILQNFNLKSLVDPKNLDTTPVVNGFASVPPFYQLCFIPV
T2 sequence (P33261 whole entry): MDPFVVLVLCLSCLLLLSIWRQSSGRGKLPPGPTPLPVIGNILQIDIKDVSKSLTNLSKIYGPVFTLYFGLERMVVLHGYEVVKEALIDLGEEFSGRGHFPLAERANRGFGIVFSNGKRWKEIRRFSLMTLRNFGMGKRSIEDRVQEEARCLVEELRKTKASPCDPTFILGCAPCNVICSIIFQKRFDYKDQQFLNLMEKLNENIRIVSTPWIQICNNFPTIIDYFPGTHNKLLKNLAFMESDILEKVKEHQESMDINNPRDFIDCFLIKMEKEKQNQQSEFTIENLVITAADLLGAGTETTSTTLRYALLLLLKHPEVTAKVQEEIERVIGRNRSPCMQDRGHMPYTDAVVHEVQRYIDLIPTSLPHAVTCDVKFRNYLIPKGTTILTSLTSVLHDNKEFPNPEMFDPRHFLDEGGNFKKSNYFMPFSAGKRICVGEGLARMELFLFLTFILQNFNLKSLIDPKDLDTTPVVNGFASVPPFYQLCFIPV

MIC [1] | IC50 [2] | IC50 [3] | IC50 [4] | MIC [5] | Structure (SMILES) | pest or weed control at 50 ppm [6]
0.5 µg/mL (≈ 1.63 µM) | – | – | – | – | OC(Cn1cncn1)(Cn1cncn1)c1ccc(F)cc1F [Fluconazole, reference compound] | –
0.016 µg/mL (≈ 0.0458 µM) | – | – | – | – | C[C@@H](c1ncncc1F)[C@](O)(Cn1cncn1)c1ccc(F)cc1F [Voriconazole, reference compound] | –
0.031 µg/mL (≈ 0.0659 µM) | 31 µM | 16 µM | 16 µM | ≤ 0.5 µg/mL | N#Cc1ccc(Oc2ccc(C(F)(F)C(O)(Cn3cnnn3)c3ccc(F)cc3F)nc2)cc1 (centres unmarked) [Compound 5, 4-(6-(2-(2,4-Difluorophenyl)-1,1-difluoro-2-hydroxy-3-(1H-tetrazol-1-yl)propyl)pyridin-3-yloxy)benzonitrile] | 80 to 100%
0.002 µg/mL (≈ 0.00419 µM) | 12 µM | 11 µM | 8.4 µM | ≤ 0.5 µg/mL | OC(Cn1cnnn1)(c1ccc(F)cc1F)C(F)(F)c1ccc(OCc2cccc(F)c2)cn1 (centres unmarked) [Compound 3, 2-(2,4-Difluorophenyl)-1,1-difluoro-1-(5-(3-fluorobenzyloxy)pyridin-2-yl)-3-(1H-tetrazol-1-yl)propan-2-ol] | 80 to 100%
